Measured values: ChEMBL document CHEMBL3885861, “Open TG-GATES”

Organism: Rattus norvegicus
Test: Open TG-GATES - Regimen: Daily Repeat
Format: toxicity, organism-based, Sprague-Dawley
Design: regimen Daily Repeat, gender Male, age 6 weeks
Details: in vivo, po, 30 mg/kg, route gavage, dose level Low; for APTT / Bas / Eos / Fbg / Hb / Ht / Lym / MCH / MCHC / MCV / Mono / Neu / PT / Plat / RBC / Ret / WBC: tissue Blood; for KIDNEY_L / KIDNEY_R / KIDNEY_TOTAL: tissue Kidney; for LIVER: tissue Liver; for A/G / ALP / ALT / AST / BUN / CRE / Ca / Cl / DBIL / GLC / IP / K / LDH / Na / PL / RALB / TBIL / TC / TG / TP / gamma-GTP: tissue Plasma

SMILES: C[C@]12CCC(=O)C=C1CC[C@@H]1[C@@H]2CC[C@@]2(C)[C@H]1CC[C@]2(C)O [METHYLTESTOSTERONE]
- TERMINAL_BW (72 h, time 3 day): 237.2 g
- APTT (72 h, time 3 day): 15.8 s
- Bas (72 h, time 3 day): 0%
- Eos (72 h, time 3 day): 1.2%
- Fbg (72 h, time 3 day): 296.2 mg/dL
- Hb (72 h, time 3 day): 13.3 g/dL
- Ht (72 h, time 3 day): 38.8%
- Lym (72 h, time 3 day): 75.2%
- MCH (72 h, time 3 day): 21.5 pg
- MCHC (72 h, time 3 day): 34.2%
- MCV (72 h, time 3 day): 63 fL
- Mono (72 h, time 3 day): 2.6%
- Neu (72 h, time 3 day): 20.8%
- PT (72 h, time 3 day): 12.8 s
- Plat (72 h, time 3 day): 111.2 x10_4/uL
- RBC (72 h, time 3 day): 617 x10_4/ul
- Ret (72 h, time 3 day): 6.6%
- WBC (72 h, time 3 day): 57.6 x10_2/uL
- KIDNEY_L (72 h, time 3 day): 1 g
- KIDNEY_R (72 h, time 3 day): 1 g
- KIDNEY_TOTAL (72 h, time 3 day): 2 g
- LIVER (72 h, time 3 day): 11.1 g
- A/G (72 h, time 3 day): 0.9
- ALP (72 h, time 3 day): 1870.2 IU/L
- ALT (72 h, time 3 day): 45.4 IU/L
- AST (72 h, time 3 day): 69.6 IU/L
- BUN (72 h, time 3 day): 15 mg/dL
- CRE (72 h, time 3 day): 0.2 mg/dL
- Ca (72 h, time 3 day): 11 mg/dL
- Cl (72 h, time 3 day): 107.6 meq/L
- DBIL (72 h, time 3 day): 0.018 mg/dL
- GLC (72 h, time 3 day): 195 mg/dL
- IP (72 h, time 3 day): 7.9 mg/dL
- K (72 h, time 3 day): 4.1 meq/L
- LDH (72 h, time 3 day): 58.2 IU/L
- Na (72 h, time 3 day): 144 meq/L
- PL (72 h, time 3 day): 144 mg/dL
- RALB (72 h, time 3 day): 2.7 g/dL
- TBIL (72 h, time 3 day): 0.03 mg/dL
- TC (72 h, time 3 day): 67.2 mg/dL
- TG (72 h, time 3 day): 123.6 mg/dL
- TP (72 h, time 3 day): 5.8 g/dL
- gamma-GTP (72 h, time 3 day): 1.4 IU/L
- TERMINAL_BW ([…], time 7 day): 271.8 g
- TERMINAL_BW ([…], time 14 day): 329.8 g
- TERMINAL_BW ([…], time 28 day): 409.3 g
- APTT ([…], time 7 day): 16.5 s
- Bas ([…], time 7 day): 0%
- Eos ([…], time 7 day): 1%
- Fbg ([…], time 7 day): 308.4 mg/dL
- Hb ([…], time 7 day): 13.1 g/dL
- Ht ([…], time 7 day): 38.1%
- Lym ([…], time 7 day): 76.8%
- MCH ([…], time 7 day): 21 pg
- MCHC ([…], time 7 day): 34.4%
- MCV ([…], time 7 day): 61 fL
- Mono ([…], time 7 day): 3%
- Neu ([…], time 7 day): 18.6%
- PT ([…], time 7 day): 13 s
- Plat ([…], time 7 day): 111.9 x10_4/uL
- RBC ([…], time 7 day): 625.6 x10_4/ul
- Ret ([…], time 7 day): 5.8%
- WBC ([…], time 7 day): 78.3 x10_2/uL
- APTT ([…], time 14 day): 17.7 s
- Bas ([…], time 14 day): 0.2%
- Eos ([…], time 14 day): 1%
- Fbg ([…], time 14 day): 289.2 mg/dL
- Hb ([…], time 14 day): 14.4 g/dL
- Ht ([…], time 14 day): 41.7%
- Lym ([…], time 14 day): 79.2%
- MCH ([…], time 14 day): 20.6 pg
- MCHC ([…], time 14 day): 34.6%
- MCV ([…], time 14 day): 59.6 fL
- Mono ([…], time 14 day): 2.4%
- Neu ([…], time 14 day): 16%
- PT ([…], time 14 day): 13.3 s
- Plat ([…], time 14 day): 114.4 x10_4/uL
- RBC ([…], time 14 day): 700.2 x10_4/ul
- Ret ([…], time 14 day): 3.9%
- WBC ([…], time 14 day): 96.1 x10_2/uL
- APTT ([…], time 28 day): 19.2 s
- Bas ([…], time 28 day): 0%
- Eos ([…], time 28 day): 1.4%
- Fbg ([…], time 28 day): 300.2 mg/dL
- Hb ([…], time 28 day): 15.7 g/dL
- Ht ([…], time 28 day): 44.9%
- Lym ([…], time 28 day): 75.8%
- MCH ([…], time 28 day): 19.5 pg
- MCHC ([…], time 28 day): 35%
- MCV ([…], time 28 day): 55.6 fL
- Mono ([…], time 28 day): 2.6%
- Neu ([…], time 28 day): 20.2%
- PT ([…], time 28 day): 13.1 s
- Plat ([…], time 28 day): 101.6 x10_4/uL
- RBC ([…], time 28 day): 809.2 x10_4/ul
- Ret ([…], time 28 day): 2.2%
- WBC ([…], time 28 day): 84 x10_2/uL
- KIDNEY_L ([…], time 7 day): 1.1 g
- KIDNEY_R ([…], time 7 day): 1.1 g
- KIDNEY_TOTAL ([…], time 7 day): 2.3 g
- KIDNEY_L ([…], time 14 day): 1.3 g
- KIDNEY_R ([…], time 14 day): 1.2 g
- KIDNEY_TOTAL ([…], time 14 day): 2.5 g
- KIDNEY_L ([…], time 28 day): 1.4 g
- KIDNEY_R ([…], time 28 day): 1.4 g
- KIDNEY_TOTAL ([…], time 28 day): 2.9 g
- LIVER ([…], time 7 day): 12.5 g
- LIVER ([…], time 14 day): 14.5 g
- LIVER ([…], time 28 day): 17.1 g
- A/G ([…], time 7 day): 0.9
- ALP ([…], time 7 day): 1824.8 IU/L
- ALT ([…], time 7 day): 46.8 IU/L
- AST ([…], time 7 day): 75.2 IU/L
- BUN ([…], time 7 day): 15 mg/dL
- CRE ([…], time 7 day): 0.2 mg/dL
- Ca ([…], time 7 day): 10.9 mg/dL
- Cl ([…], time 7 day): 106 meq/L
- DBIL ([…], time 7 day): 0.02 mg/dL
- GLC ([…], time 7 day): 190.4 mg/dL
- IP ([…], time 7 day): 7.6 mg/dL
- K ([…], time 7 day): 4.1 meq/L
- LDH ([…], time 7 day): 63.6 IU/L
- Na ([…], time 7 day): 142.4 meq/L
- PL ([…], time 7 day): 133 mg/dL
- RALB ([…], time 7 day): 2.7 g/dL
- TBIL ([…], time 7 day): 0.026 mg/dL
- TC ([…], time 7 day): 54.6 mg/dL
- TG ([…], time 7 day): 133 mg/dL
- TP ([…], time 7 day): 5.8 g/dL
- gamma-GTP ([…], time 7 day): 1.2 IU/L
- A/G ([…], time 14 day): 0.8
- ALP ([…], time 14 day): 1301 IU/L
- ALT ([…], time 14 day): 49.8 IU/L
- AST ([…], time 14 day): 72.8 IU/L
- BUN ([…], time 14 day): 16.4 mg/dL
- CRE ([…], time 14 day): 0.2 mg/dL
- Ca ([…], time 14 day): 10.5 mg/dL
- Cl ([…], time 14 day): 106.8 meq/L
- DBIL ([…], time 14 day): 0.02 mg/dL
- GLC ([…], time 14 day): 192.6 mg/dL
- IP ([…], time 14 day): 7.1 mg/dL
- K ([…], time 14 day): 4 meq/L
- LDH ([…], time 14 day): 132.6 IU/L
- Na ([…], time 14 day): 142.2 meq/L
- PL ([…], time 14 day): 134.2 mg/dL
- RALB ([…], time 14 day): 2.7 g/dL
- TBIL ([…], time 14 day): 0.026 mg/dL
- TC ([…], time 14 day): 54 mg/dL
- TG ([…], time 14 day): 178.6 mg/dL
- TP ([…], time 14 day): 5.9 g/dL
- gamma-GTP ([…], time 14 day): 1.2 IU/L
- A/G ([…], time 28 day): 0.8
- ALP ([…], time 28 day): 1236.2 IU/L
- ALT ([…], time 28 day): 43.6 IU/L
- AST ([…], time 28 day): 66.8 IU/L
- BUN ([…], time 28 day): 16.6 mg/dL
- CRE ([…], time 28 day): 0.2 mg/dL
- Ca ([…], time 28 day): 11.1 mg/dL
- Cl ([…], time 28 day): 105.2 meq/L
- DBIL ([…], time 28 day): 0.022 mg/dL
- GLC ([…], time 28 day): 192 mg/dL
- IP ([…], time 28 day): 6.7 mg/dL
- K ([…], time 28 day): 3.9 meq/L
- LDH ([…], time 28 day): 76.6 IU/L
- Na ([…], time 28 day): 143.6 meq/L
- PL ([…], time 28 day): 141.4 mg/dL
- RALB ([…], time 28 day): 2.9 g/dL
- TBIL ([…], time 28 day): 0.034 mg/dL
- TC ([…], time 28 day): 56.2 mg/dL
- TG ([…], time 28 day): 214 mg/dL
- TP ([…], time 28 day): 6.3 g/dL
- gamma-GTP ([…], time 28 day): 1 IU/L
